Legend:
[1] = tested on: Trypanosoma cruzi; test: microbe, parasite or virus in culture; format: functional, organism-based, Tulahuen LacZ, Clone C4; conditions: Trypanosoma cruzi, Tulahuen LacZ, Clone C4
[2] = DNDI: Cytotoxicity against L-6 rat myoblasts from skeletal muscle cells; conditions: L6 rat skeletal muscle myoblast cells, IC50
[3] = tested on: Trypanosoma cruzi; test: microbe, parasite or virus in culture; format: functional, Tulahuen LacZ, Clone C4
[4] = Trypanosoma cruzi, Tulahuen LacZ, Clone C4

Row | SMILES | IC50 [1] [nM] | IC90 [3, 4] [nM] | IC90 [3] [nM] | IC50 [2] [µM]
1 | O=C(N1CCN(C(c2cccnc2)c2ccc(Cl)cc2F)CC1)C(F)(F)F (stereo unspecified) | 320 | 830 | – | > 100
2 | CC(C)Oc1ccc(C(c2cccnc2)N(C(=O)C2CC2)C2CCN(C(=O)C3CC3)CC2)cc1 (stereo unspecified) | > 1000 | > 1000 | – | > 100
3 | Cc1ncoc1C(=O)NC1CCN(C(c2ccc(C(F)(F)F)cc2)c2cccnc2)CC1 (stereo unspecified) | 29 | 120 | – | 84.7
4 | CS(=O)(=O)NC1CCN(C(c2cccnc2)c2ccc(Cl)cc2F)CC1 (stereo unspecified) | 83 | 364 | – | > 100
5 | CS(=O)(=O)NC1CCN(C(c2ccc(Cl)cc2)c2cncnc2)CC1 (stereo unspecified) | 630 | > 1000 | – | > 100
6 | CCN(CC)C(=O)N1CCC(NC(c2ccc(OC(C)C)cc2)c2cccnc2)CC1 (stereo unspecified) | 7 | 36 | – | > 100
7 | CCN(CC)C(=O)NC1CCN(C(c2ccc(Cl)cc2)c2cncnc2)CC1 (stereo unspecified) | 110 | 860 | – | > 100
8 | O=C(Nc1ccccc1)NC1CCN(C(c2cncnc2)c2ccc(Cl)cc2F)CC1 (stereo unspecified) | 30 | 190 | – | 56.1
9 | O=C(NC1CCN(C(c2ccc(C(F)(F)F)cc2)c2cccnc2)CC1)C1CC1 (stereo unspecified) | 72 | 280 | – | > 100
10 | CCN(CC)C(=O)NC1CCN(C(c2ccc(OC(C)C)cc2)c2cccnc2)CC1 (stereo unspecified) | 87 | 280 | – | > 100
11 | Cc1ncsc1C(=O)NC1CCN(C(c2ccc(C(F)(F)F)cc2)c2cccnc2)CC1 (stereo unspecified) | 18 | 82 | – | 60.4
12 | CC(C)Oc1ccc(C(NC2CCN(C(=O)c3ccccc3)CC2)c2cccnc2)cc1 (stereo unspecified) | 74 | 270 | – | > 100
13 | O=C(NC1CCN(C(c2ccc(Cl)cc2)c2cncnc2)CC1)c1ccccc1 (stereo unspecified) | 75 | 790 | – | 90.8
14 | Cc1cc(C(=O)N2CCC(NC(c3ccc(C(F)(F)F)cc3)c3cccnc3)CC2)[nH]n1 (stereo unspecified) | 200 | 640 | – | > 100
15 | O=C(NC1CCN(C(c2cncnc2)c2ccc(Cl)cc2F)CC1)c1ccccc1 (stereo unspecified) | 22 | 110 | – | 82.4
16 | O=C(Nc1ccccc1)NC1CCN(C(c2ccc(Cl)cc2)c2cncnc2)CC1 (stereo unspecified) | 100 | > 1000 | – | 54.4

Row | SMILES | IC50 [1] [nM] | IC90 [3, 4] [nM] | IC90 [3] [nM] | IC50 [2] [µM]
17 | Cc1cc(C(=O)NC2CCN(C(c3ccc(C(F)(F)F)cc3)c3cccnc3)CC2)no1 (stereo unspecified) | 9.3 | 27 | – | 47.4
18 | CC(C)Oc1ccc(C(NC2CCN(C(=O)OC(C)(C)C)CC2)c2cccnc2)cc1 (stereo unspecified) | 6.2 | 11 | – | 58.8
19 | CC(C)Oc1ccc(C(c2cccnc2)N2CCC(NS(C)(=O)=O)CC2)cc1 (stereo unspecified) | 110 | 320 | – | > 100
20 | O=C(NC1CCN(C(c2cccnc2)c2ccc(Cl)cc2F)CC1)c1ccccc1 (stereo unspecified) | 8.25 | 83.3 | – | 56.4
21 | O=C(c1ccc(F)c(C(O)(c2ccc(Cl)cc2)c2cccnc2)c1)N1CCOCC1 (stereo unspecified) | 48 | 190 | – | > 100
22 | CC(C)Oc1ccc(C(NC2CCN(S(C)(=O)=O)CC2)c2cccnc2)cc1 (stereo unspecified) | 140 | 380 | – | > 100
23 | CS(=O)(=O)N1CCC(C(O)(c2ccc(Cl)cc2)c2cccnc2)CC1 (stereo unspecified) | 200 | 550 | – | > 100
24 | Cc1ncoc1C(=O)N1CCC(NC(c2ccc(C(F)(F)F)cc2)c2cccnc2)CC1 (stereo unspecified) | 140 | 540 | – | > 100
25 | CC(C)Oc1ccc(C(c2cccnc2)N2CCC(NC(=O)C3CC3)CC2)cc1 (stereo unspecified) | 380 | 860 | – | > 100
26 | CC(C)Oc1ccc(C(O)(c2cccnc2)c2cccc(C(N)=O)c2)cc1 (stereo unspecified) | 92 | 330 | – | 69.7
27 | CC(C)Oc1ccc(C(c2cccnc2)N2CCC(NC(=O)c3ccccc3)CC2)cc1 (stereo unspecified) | 61 | 180 | – | > 100
28 | O=C(NC1CCN(C(c2cccnc2)c2ccc(Cl)cc2F)CC1)C1CC1 (stereo unspecified) | 38 | 130 | – | > 100
29 | CC(C)Oc1ccc(C(c2cccnc2)N2CCC(NC(=O)Nc3ccccc3)CC2)cc1 (stereo unspecified) | 57 | 110 | – | 74.2
30 | O=C(C1CC1)N1CCN(C(c2cccnc2)c2ccc(Cl)cc2F)CC1 (stereo unspecified) | 26 | 82 | – | > 100
31 | O=C(NC1CCN(C(c2cncnc2)c2ccc(Cl)cc2F)CC1)c1ccccc1F (stereo unspecified) | 17.5 | 95.5 | – | > 100

The next lines start with results.

Row | IC50 [1] [nM] | IC90 [3, 4] [nM] | IC90 [3] [nM] | SMILES | IC50 [2] [µM]
32 | 72 | 250 | – | CC(C)Oc1ccc(C(NC2CCN(C(=O)Nc3ccccc3)CC2)c2cccnc2)cc1 (stereo unspecified) | 72.1
33 | 120 | 350 | – | Cc1cc(C(=O)N2CCC(NC(c3ccc(C(F)(F)F)cc3)c3cccnc3)CC2)no1 (stereo unspecified) | > 100
34 | 40 | 100 | – | CC(C)Oc1ccc(C(O)(c2ccc(Cl)cc2)c2cncnc2)cn1 (stereo unspecified) | 85.9
35 | 120 | 730 | – | CCN(CC)C(=O)NC1CCN(C(c2ccc(Cl)cc2)c2cccnc2)CC1 (stereo unspecified) | > 100
36 | 11 | 38 | – | CC(C)(C)OC(=O)NC1CCN(C(c2ccc(C(F)(F)F)cc2)c2cccnc2)CC1 (stereo unspecified) | 48
37 | 76 | 377 | – | Cc1cc(C(=O)NC2CCN(C(c3cncnc3)c3ccc(Cl)cc3F)CC2)no1 (stereo unspecified) | > 100
38 | 29 | 95 | – | N#Cc1ccc(C(c2cccnc2)N2CCC(NC(=O)Nc3ccccc3)CC2)cc1 (stereo unspecified) | > 100
39 | 48 | 150 | – | Cc1cc(C(=O)NC2CCN(C(c3ccc(C(F)(F)F)cc3)c3cccnc3)CC2)[nH]n1 (stereo unspecified) | 73.1
40 | 50 | 150 | – | CS(=O)(=O)NC1CCN(C(c2ccc(C(F)(F)F)cc2)c2cccnc2)CC1 (stereo unspecified) | > 100
41 | 50 | 250 | – | CCN(CC)C(=O)NC1CCN(C(c2cncnc2)c2ccc(Cl)cc2F)CC1 (stereo unspecified) | 58.1
42 | 14 | 36 | – | O=C(Nc1ccccc1)NC1CCN(C(c2ccc(C(F)(F)F)cc2)c2cccnc2)CC1 (stereo unspecified) | 31.7
43 | 86.5 | 426 | – | NC(=O)c1cccc(C(O)(c2cncnc2)c2ccc(Cl)cc2F)c1 (stereo unspecified) | > 100
44 | 480 | > 1000 | – | O=C(NC1CCN(C(c2ccc(Cl)cc2)c2cncnc2)CC1)C1CC1 (stereo unspecified) | > 100
45 | 150 | 480 | – | O=C(NC1CCN(C(c2cncnc2)c2ccc(Cl)cc2F)CC1)C1CC1 (stereo unspecified) | > 100
46 | 28 | 85 | – | CCN(CC)C(=O)NC1CCN(C(c2ccc(C#N)cc2)c2cccnc2)CC1 (stereo unspecified) | > 100
47 | 920 | 2780 | – | NC(=O)c1cccc(C(O)(c2ccc(Cl)cc2)c2cncnc2)c1 (stereo unspecified) | > 100
48 | 40.5 | 204 | – | O=C(NC1CCN(C(c2cncnc2)c2ccc(Cl)cc2F)CC1)c1cccc(F)c1 (stereo unspecified) | 61.2
49 | 600 | > 1000 | – | CS(=O)(=O)NC1CCN(C(c2ccc(C#N)cc2)c2cccnc2)CC1 (stereo unspecified) | > 100
50 | 24 | 79 | 90 | N#Cc1ccc(C(c2cccnc2)N2CCC(NC(=O)c3ccccc3)CC2)cc1 (stereo unspecified) | > 100
